Data taken from ChEMBL document CHEMBL4842310, “Cannabichromene and Δ9-Tetrahydrocannabinolic Acid Identified as Lactate Dehydrogenase-A Inhibitors by in Silico and in Vitro Screening” (J Nat Prod, 2021).

Columns and labels:
[1] = target: L-lactate dehydrogenase B chain (Homo sapiens) (UniProt P07195); assay: Inhibition of human LDHB assessed as reduction in lactate production using pyruvate as substrate at 10 uM in presence of NADH by spectrophotometric analysis relative to control
[2] = target: T1, L-lactate dehydrogenase A chain (Homo sapiens, UniProt P00338); assay: Non-competitive inhibition of human LDHA assessed as reduction in lactate production using pyruvate as substrate in presence of NADH by Lineweaver-Burk plot analysis
[3] = target: T1, L-lactate dehydrogenase A chain; assay: Inhibition of human LDHA assessed as reduction in lactate production using pyruvate as substrate at 10 uM in presence of NADH by spectrophotometric analysis relative to control

L-lactate dehydrogenase B chain (Homo sapiens), sequence (P07195 2-334 limits assumed): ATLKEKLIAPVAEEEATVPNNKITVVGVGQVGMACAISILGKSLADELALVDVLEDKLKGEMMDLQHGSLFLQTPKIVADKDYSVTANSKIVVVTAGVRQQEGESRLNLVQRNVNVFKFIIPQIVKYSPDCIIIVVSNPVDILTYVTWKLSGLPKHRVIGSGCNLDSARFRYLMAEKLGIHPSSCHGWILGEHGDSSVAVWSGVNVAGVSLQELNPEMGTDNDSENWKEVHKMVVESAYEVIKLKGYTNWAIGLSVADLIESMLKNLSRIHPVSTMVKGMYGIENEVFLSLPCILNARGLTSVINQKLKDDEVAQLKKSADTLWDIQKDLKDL

CCCCCc1cc2c(c(O)c1C(=O)O)-c1cc(C)ccc1C(C)(C)O2
inhibition [1]: < 50%

CCCc1cc(O)c(C/C=C(\C)CCC=C(C)C)c(O)c1C(=O)O
inhibition [1]: < 50%

C=C(C)[C@@H]1CCC(C)=C[C@H]1c1c(O)cc(CCCCC)cc1O [CANNABIDIOL]
inhibition [1]: < 50%
Ki [2]: 24 µM

C=C(C)[C@@H]1CCC(C)=C[C@H]1c1c(O)cc(CCC)cc1O
inhibition [1]: < 50%

CCCCCc1cc(O)c(C/C=C(\C)CCC=C(C)C)c(O)c1C(=O)O
inhibition [1]: < 50%

CCCCCc1cc(O)c(C/C=C(\C)CCC=C(C)C)c(O)c1
inhibition [1]: < 50%

CCCCCc1cc(O)c2c(c1)OC(C)(C)c1ccc(C)cc1-2
inhibition [1]: < 50%

CCCCCc1cc2c(c(O)c1C(=O)O)C=CC(C)(CCC=C(C)C)O2 (centres undefined)
inhibition [1]: < 50%

C=C(C)[C@@H]1CCC(C)=C[C@H]1c1c(O)cc(CCC)c(C(=O)O)c1O
inhibition [1]: < 50%

CCCc1cc(O)c(C/C=C(\C)CCC=C(C)C)c(O)c1
inhibition [1]: < 50%

CCCc1cc2c(c(O)c1C(=O)O)C=CC(C)(CCC=C(C)C)O2 (centres undefined)
inhibition [1]: < 50%

CC(C)=CCC/C(C)=C/Cc1c(O)cc(C)cc1O
inhibition [1]: < 50%

CCCc1cc(O)c2c(c1)OC(C)(C)[C@@H]1CCC(C)=C[C@@H]21
inhibition [1]: < 50%

C=C(C)[C@@H]1CCC(C)=C[C@H]1c1c(O)cc(CCCCC)c(C(=O)O)c1O
inhibition [1]: < 50%

CCCc1cc2c(c(O)c1C(=O)O)[C@@H]1C=C(C)CC[C@H]1C(C)(C)O2
inhibition [1]: < 50%

CCCCCc1cc2c(c(O)c1C(=O)O)[C@@H]1C=C(C)CC[C@H]1C(C)(C)O2 [DELTA9-TETRAHYDROCANNABINOLIC ACID A]
inhibition [3]: > 50%
inhibition [1]: < 50%
Ki [2]: 6.5 µM

CCCCCc1cc(O)c2c(c1)OC(C)(C)[C@@H]1CCC(C)=C[C@@H]21 [DRONABINOL]
inhibition [1]: < 50%
Ki [2]: 14 µM

CCCCCc1cc(O)c2c(c1)OC(C)(CCC=C(C)C)C=C2 (centres undefined) [CANNABICHROMENE]
inhibition [3]: > 50%
inhibition [1]: < 50%
Ki [2]: 8.5 µM
